Experimental data published in patent US9862674B2, “Therapeutic compounds and methods of use” (University of Florida Research Foundation, Inc., priority 2007, dated 2018).

What was measured:
5HT2A receptor [1] = biological target: T1, 5HT2A receptor (Homo sapiens, UniProt P28223); test: PLC/[3H]-IP formation in CHO cells transiently transfected with human 5HT2A cDNA (agonist and antagonist mode); type: cell-based; design: host or cells: CHO-K1 (ATCC CCL-61), transient transfection
5HT2A receptor [2] = biological target: T1, 5HT2A receptor; test: PDSP (2005) 5HT2A receptor-mediated PLC/[3H]-IP formation; type: cell-based; details: concentrations to 10 μM; not shown
5HT2C receptors [3] = biological target: T2, 5HT2C receptors (Homo sapiens, UniProt P28335); test: Radioreceptor saturation and competition binding, [3H]-mesulergine labeled 5-HT2C receptor membranes from transfected CHO-K1 cells
T2 sequence (P28335 33-458): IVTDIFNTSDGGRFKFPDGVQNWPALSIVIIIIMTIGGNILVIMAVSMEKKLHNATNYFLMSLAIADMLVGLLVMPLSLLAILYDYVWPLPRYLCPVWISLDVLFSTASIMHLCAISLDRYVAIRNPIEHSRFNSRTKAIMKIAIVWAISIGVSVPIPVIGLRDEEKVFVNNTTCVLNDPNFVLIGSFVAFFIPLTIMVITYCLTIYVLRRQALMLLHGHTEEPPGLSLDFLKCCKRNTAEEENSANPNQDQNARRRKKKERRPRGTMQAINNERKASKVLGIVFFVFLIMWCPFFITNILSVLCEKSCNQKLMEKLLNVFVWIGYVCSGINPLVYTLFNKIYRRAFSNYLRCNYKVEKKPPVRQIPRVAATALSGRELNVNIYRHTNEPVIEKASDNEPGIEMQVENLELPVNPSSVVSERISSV

5HT2C receptors [4] = biological target: T2, 5HT2C receptors; test: PDSP (2005) functional activity of APTs at 5HT2C receptors; type: cell-based; details: preliminary data
[5] = tested on: cocaine self-administration; details: rat; cited from earlier work
5HT2A receptor [6] = biological target: T1, 5HT2A receptor; test: Radioreceptor saturation and competition binding, [3H]-ketanserin labeled 5-HT2A receptor membranes from transfected CHO-K1 cells; design: host or cells: CHO-K1 (ATCC CCL-61), transient transfection; details: saturation binding
[7] = tested on: 5HT2C receptors over 5HT2A receptors; details: in vitro; cited from earlier work

T1 sequence (P28223 whole entry): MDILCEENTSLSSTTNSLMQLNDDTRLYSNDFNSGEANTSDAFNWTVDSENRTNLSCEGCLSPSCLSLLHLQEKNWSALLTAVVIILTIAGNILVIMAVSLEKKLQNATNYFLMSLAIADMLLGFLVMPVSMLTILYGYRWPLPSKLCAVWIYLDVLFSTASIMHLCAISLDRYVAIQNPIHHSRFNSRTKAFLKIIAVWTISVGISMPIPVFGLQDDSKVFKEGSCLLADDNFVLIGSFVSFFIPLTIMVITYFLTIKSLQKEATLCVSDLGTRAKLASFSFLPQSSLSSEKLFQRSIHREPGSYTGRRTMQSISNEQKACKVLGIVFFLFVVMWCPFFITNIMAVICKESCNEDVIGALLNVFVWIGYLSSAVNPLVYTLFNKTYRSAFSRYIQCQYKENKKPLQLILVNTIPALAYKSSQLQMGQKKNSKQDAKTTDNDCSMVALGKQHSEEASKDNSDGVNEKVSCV

## NCCc1c[nH]c2ccc(O)cc12 [5-HT, 5-hydroxytryptamine]
5HT2A receptor [1]; 5-HT 1.0 μM
  5HT2A PLC/[3H]-IP formation stimulated by agonist: ~250 % basal control
5HT2A receptor [1]; at Emax concentration
  maximal PLC/[3H]-IP formation, 5HT2A: ~300 % basal control activity

## CN(C)C1CCc2c(cccc2-c2ccccc2)C1 (stereo not shown) [32 (5APT)]
5HT2A receptor [2]
  activation of 5HT2A receptor-mediated PLC/[3H]-IP formation (PDSP): did not activate
5HT2C receptors [3]
  Ki: 320 ± 11 nM
5HT2C receptors [4]
  EC50: ~80 nM
  Emax at 5HT2C (PDSP): ~75 % 5HT value
  functional character at 5HT2C (PDSP): moderate potency partial agonist

## CN(C)C1CCc2c(cccc2-c2cccc(C(F)(F)F)c2)C1 (stereo not shown) [33 (CF3^−5APT)]
5HT2C receptors [3]
  Ki: ~190 nM

## CN(C)C1CCc2c(cccc2-c2cccc(Cl)c2)C1 (stereo not shown) [35 (Cl-5APT)]
5HT2C receptors [3]
  Ki: ~220 nM

## CN(C)C1CCc2cc(-c3ccccc3)ccc2C1 (stereo not shown) [36 (6APT)]
5HT2C receptors [3]
  Ki: 1800 nM

## CN(C)C1CCc2cc(-c3cccc(C(F)(F)F)c3)ccc2C1 (stereo not shown) [37 (CF3^−6APT)]
5HT2C receptors [3]
  Ki: ~1500 nM

## CN(C)C1CCc2cc(-c3cccc(Br)c3)ccc2C1 (stereo not shown) [40 (Br-6APT)]
5HT2C receptors [3]
  Ki: 540 ± 10 nM

## COc1cccc([C@H](O)C2CCN(CCc3ccc(F)cc3)CC2)c1OC [M100907]
[5]
  effect on rate of cocaine self-administration: does not alter responding rate

## Cc1cc2c(cc1Cl)N(C(=O)Nc1ccc(Oc3cccnc3C)nc1)CC2 [SB242084]
[5]
  effect on rate of cocaine self-administration: increases the rate of cocaine self-administration dose-dependently

## [3H]C([3H])(N1CCC(C(=O)c2ccc(F)cc2)CC1)C([3H])([3H])n1c(=O)[nH]c2ccccc2c1=O [[^3H]-Ketanserin]
5HT2A receptor [6]
  Bmax of 5HT2A receptors labeled: 1.73±0.11 pmol/mg protein

## C[C@H]1CNCCc2ccc(Cl)cc21 [lorcaserin]
[7]
  selectivity for activation of 5HT2C receptors over 5HT2A receptors: 15 fold
